One data set deals with PC12 cells. The data set is described as follows: Intracellular concentration of 1 in PC12 cells by LC-MS. In kind it is cell-based. Conditions: 12 h at 37° C. The procedure:
FIG. 10 depicts the long term cytotoxicity of 1 on PC12 cells. Related to FIG. 2. (a) MTT viability test of cell incubated with gradient concentration of 1 for up to 7 days without changing medium. Data are presented as mean±SD of three independent experiments. (b) Intracellular concentration of 1 in PC12 cells treated with 1 for 12 h at 37° C. measured by LC-MS (left bar=400 μM; right bar=300 μM). (c) Cells were subcultured and re-seeded with new medium containing the same concentration of 1 (0 for control group and 400 μM for test group) every 4 days. Data are presented as mean±SD of three independent experiments.
FIG. 21 depicts the intracellular concentration of 1 in PC12 and T98G cells after incubation with 400 μM of 1 for 12 h. Cells in exponential growth phase were seeded in a 10 cm petri dish at 10,000 cell/mL. The cells were allowed to attach for 24 h at 37° C., 5% CO2. The culture medium was removed, and new culture medium containing 1 at 0 or 400 μM was added. After 12 h of incubation, cells were washed with PBS buffer 3 times and collected by cell scraper with 1 mL of PBS buffer. The cell suspension was centrifuged at 600 g for 5 min to obtain a cell pellet. 10 μL of the cell pellet were lysed in 200 μL of water and 200 μL of MeOH. […] The concentration of 1 in the lysate was measured by LC-MS.

Another data set has as its system HeLa cells. The data set is described as follows: Flow cytometry cell-cycle analysis of HeLa cells. In kind it is cell-based. As to conditions: 400 μM, 24 h. The procedure:
FIG. 3 depicts the response of cancer cells toward molecular aggregates of 1. (a) Intracellular concentration of 1 in HeLa cells treated with 1 for 12 h at different temperatures measure by LC-MS (left bar=37° C.; right bar=4° C.). (b) Confocal images of FITC annexin V and PI stained HeLa cells without incubation with 1 (live cells), HeLa cells treated with 400 μM of 1 for 36 h, and necrotic HeLa cells (induced by DMSO). Scale bar=20 μm. (c) Fluorescence emission of 7-AAD and 1 in cell lysate (15,000 cell/mL) at λex=488 nm. (d) Cell cycle analysis, by flow cytometry, of HeLa cells treated with 0, 300 or 400 μM of 1 for 24 h. Depletion of G2/M phase occurs in cells treated with 400 μM of 1. (e) Cell migration assay of HeLa cells treated with 0, 300, 400 or 500 μM of 1. The gaps were created on the HeLa cells of 100% confluence in 24 well plates, and measured after incubation for 18 h.
Because apoptosis associates with cell cycle, we examined the effect of the aggregates of 1 on the cell cycle. […] The cell-cycle distribution of the HeLa cells incubated with 400 μM of 1 indicates significant decrease of the peaks of S phase and G2/M phase. […] The slight right shift of the whole spectra results from the overlapping of emission of 7-AAD and 1 (FIG. 3c). But such shift barely hampers the distribution of cell-cycle of the spectra. The aggregates of 1 also delay the migration of the HeLa cells.

A further data set concerns the target T1, tubulin (Homo sapiens, UniProt P68366+P68371).
T1 construct: snap freeze and thaw for 3 cycles to lyse the cells; endogenous in cells; host or cells: HeLa cell lysate
The data set can be described thus: Hydrogel based protein pull-down assay, tubulin. The format is binding. As to conditions: hydrogel 10 mM, HeLa cell lysate, Western blot. The procedure: 4×10^7 of HeLa cells were scrapped from petri dish and washed with PBS buffer for 3 times then centrifuged at 300 g for 5 minutes. The collected cell pellet was mixed with phosphate buffer (100 mM) then snap freeze and thaw for 3 cycles to lyse the cells. The cell lysate was clarified by centrifugation at 12,000 g for 20 min at 4° C. to remove the whole cells, nuclei and large mitochondria. 50 μL of the supernatant lysate was gently mixed with 30 μL hydrogel of 1 (10 mM in PBS buffer, pH 7.6) on rotator at RT for 30 min. The hydrogel was collected by centrifugation (12,000 g, 5 min, 4° C.) and the supernatant was collected and placed on ice before analysis. The hydrogel was washed three times by gently mixing with 50 μL of the washing buffer (50 mM phosphate buffer pH 7.6 supplemented with 150 mM NaCl) on rotator at RT for 10 min followed by separation on centrifuge (12,000 g, 5 min, 4° C.). Supernatants were collected and placed on ice before analysis. Finally, the remaining hydrogel was dissolved using 1:1 washing buffer and 5× Laemeli buffer. All other samples were mixed with 5× Laemeli buffer (final concentration 2×) before SDS-PAGE.
That 1 enters the cells to affect cell cycle, cell migration, and eventually cell viability implies the interactions between the aggregates of 1 and certain intracellular proteins. […]

T1 sequence (P68366 whole entry): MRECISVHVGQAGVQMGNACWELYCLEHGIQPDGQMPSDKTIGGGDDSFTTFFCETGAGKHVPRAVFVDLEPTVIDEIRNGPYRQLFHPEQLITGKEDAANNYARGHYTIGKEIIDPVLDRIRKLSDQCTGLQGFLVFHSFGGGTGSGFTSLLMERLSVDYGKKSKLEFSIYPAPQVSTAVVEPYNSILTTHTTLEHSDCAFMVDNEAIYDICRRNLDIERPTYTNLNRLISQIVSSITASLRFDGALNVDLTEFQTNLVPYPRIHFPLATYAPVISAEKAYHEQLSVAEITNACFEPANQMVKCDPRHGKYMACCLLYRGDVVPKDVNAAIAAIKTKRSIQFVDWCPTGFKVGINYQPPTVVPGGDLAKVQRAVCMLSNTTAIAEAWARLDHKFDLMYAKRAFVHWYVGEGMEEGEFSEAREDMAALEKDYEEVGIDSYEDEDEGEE
T1 sequence (P68371 whole entry): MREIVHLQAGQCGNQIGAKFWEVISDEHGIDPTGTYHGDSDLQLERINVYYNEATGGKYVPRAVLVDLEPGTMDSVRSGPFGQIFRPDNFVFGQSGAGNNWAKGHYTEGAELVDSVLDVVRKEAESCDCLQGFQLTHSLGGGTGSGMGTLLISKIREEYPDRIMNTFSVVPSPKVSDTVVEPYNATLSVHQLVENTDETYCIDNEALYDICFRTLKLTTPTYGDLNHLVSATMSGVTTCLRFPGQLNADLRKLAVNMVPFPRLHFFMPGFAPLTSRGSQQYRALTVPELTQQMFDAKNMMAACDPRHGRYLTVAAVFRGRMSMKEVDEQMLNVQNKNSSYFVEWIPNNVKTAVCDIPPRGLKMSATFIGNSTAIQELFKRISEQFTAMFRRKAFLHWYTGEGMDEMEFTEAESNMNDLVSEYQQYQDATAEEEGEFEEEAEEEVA

For `O=C(Cc1ccc2ccccc2c1)N[C@@H](Cc1ccccc1)C(=O)N[C@@H](Cc1ccccc1)C(=O)O` [Compound 1], the “accumulation of 1 in PC12 cells versus HeLa cells” value with PC12 cells is reported as “much less amount of 1 than HeLa cells do”. The cell-cycle distribution entry in the data set on HeLa cells was “arrest the HeLa cells at the G1/G0 phase”. In addition, the “binding of tubulin to the aggregates of 1” value at tubulin was “higher affinity to the aggregates of 1 than actin does”.

(Values after US10308682B2, “Inhibition of tumor growth with aggregates of small molecules” (BRANDEIS UNIVERSITY, priority 2013, dated 2019).)
